Experimental data taken from PubChem BioAssay (NCI).
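Five compound concentrations were applied to cells in 96-well plates for 48 hours; endpoints were derived by simple linear interpolation of the resulting dose-response curve. At the GI50, growth is halved. At the TGI there is no net growth.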

Key:
Experiment in all cases: NCI-60 cell line screen, 48 h
M14 melanoma = system: M14 melanoma
HS 578T breast = system: HS 578T breast
TK-10 renal = system: TK-10 renal
UACC-257 melanoma = system: UACC-257 melanoma
RXF 393 renal = system: RXF 393 renal
HOP-62 NSCLC = system: HOP-62 NSCLC
ACHN renal = system: ACHN renal
A498 renal = system: A498 renal
SF-295 CNS = system: SF-295 CNS
OVCAR-3 ovarian = system: OVCAR-3 ovarian
SK-OV-3 ovarian = system: SK-OV-3 ovarian
BT-549 breast = system: BT-549 breast
DU-145 prostate = system: DU-145 prostate
SK-MEL-5 melanoma = system: SK-MEL-5 melanoma
U251 CNS = system: U251 CNS
786-0 renal = system: 786-0 renal
OVCAR-4 ovarian = system: OVCAR-4 ovarian
PC-3 prostate = system: PC-3 prostate
NCI-H226 lung = system: NCI-H226 lung
MDA-MB-435 = system: MDA-MB-435
MCF7 breast = system: MCF7 breast
SF-268 CNS = system: SF-268 CNS
LOX IMVI melanoma = system: LOX IMVI melanoma
SW-620 colon = system: SW-620 colon
T-47D breast = system: T-47D breast
CAKI-1 renal = system: CAKI-1 renal
OVCAR-8 ovarian = system: OVCAR-8 ovarian
EKVX NSCLC = system: EKVX NSCLC
SR leukemia = system: SR leukemia
SNB-75 CNS = system: SNB-75 CNS
K-562 leukemia = system: K-562 leukemia
NCI-H460 lung = system: NCI-H460 lung
IGROV1 ovarian = system: IGROV1 ovarian
SN12C renal = system: SN12C renal
UO-31 renal = system: UO-31 renal
SF-539 CNS = system: SF-539 CNS
COLO 205 colon = system: COLO 205 colon
KM12 colon = system: KM12 colon
HCT-116 colon = system: HCT-116 colon
NCI/ADR-RES ovarian = system: NCI/ADR-RES ovarian
A549 NSCLC = system: A549 NSCLC
HCC-2998 colon = system: HCC-2998 colon
MOLT-4 leukemia = system: MOLT-4 leukemia
OVCAR-5 ovarian = system: OVCAR-5 ovarian
RPMI-8226 leukemia = system: RPMI-8226 leukemia
NCI-H23 lung = system: NCI-H23 lung
MDA-MB-231 breast = system: MDA-MB-231 breast
HT29 colon = system: HT29 colon
CCRF-CEM leukemia = system: CCRF-CEM leukemia
HOP-92 NSCLC = system: HOP-92 NSCLC
UACC-62 melanoma = system: UACC-62 melanoma
NCI-H522 lung = system: NCI-H522 lung

Work on `Cc1cc(N2CCCCCC2)nc(NC2CCCC(Nc3ccnc4cc(Cl)ccc34)C2)n1` (centres undefined) yielded a GI50 (M14 melanoma) of 1.19 µM, a TGI (M14 melanoma) of 2.74 µM and a GI50 (HS 578T breast) of 1.8 µM. For the same molecule, the TGI (HS 578T breast) was 4.42 µM, the GI50 (TK-10 renal) was 1.99 µM and the TGI (TK-10 renal) was 3.54 µM. The GI50 (UACC-257 melanoma) was 2.17 µM, the TGI (UACC-257 melanoma) was 3.7 µM and the GI50 (RXF 393 renal) was 1.2 µM. The TGI (RXF 393 renal) was 2.58 µM, the GI50 (HOP-62 NSCLC) was 1.63 µM and the TGI (HOP-62 NSCLC) was 3.15 µM. For the same molecule, the GI50 (ACHN renal) was 1.54 µM, the TGI (ACHN renal) was 2.87 µM and the GI50 (A498 renal) was 1.44 µM. It also gave a TGI (A498 renal) of 2.86 µM, a GI50 (SF-295 CNS) of 1.45 µM and a TGI (SF-295 CNS) of 2.84 µM. For the same molecule, the GI50 (OVCAR-3 ovarian) was 1.76 µM, the TGI (OVCAR-3 ovarian) was 3.39 µM and the GI50 (SK-OV-3 ovarian) was 1.77 µM. It also gave a TGI (SK-OV-3 ovarian) of 3.23 µM, a GI50 (BT-549 breast) of 1.44 µM and a TGI (BT-549 breast) of 3.09 µM. It also gave a GI50 (DU-145 prostate) of 1.61 µM, a TGI (DU-145 prostate) of 2.99 µM and a GI50 (SK-MEL-5 melanoma) of 1.67 µM. The TGI (SK-MEL-5 melanoma) was 3.04 µM, the GI50 (U251 CNS) was 1.47 µM and the TGI (U251 CNS) was 2.78 µM. It also gave a GI50 (786-0 renal) of 1.27 µM, a TGI (786-0 renal) of 2.6 µM and a GI50 (OVCAR-4 ovarian) of 1.56 µM. For the same molecule, the TGI (OVCAR-4 ovarian) was 3.25 µM, the GI50 (PC-3 prostate) was 1.63 µM and the TGI (PC-3 prostate) was 3.2 µM. It also gave a GI50 (NCI-H226 lung) of 2.01 µM, a TGI (NCI-H226 lung) of 3.76 µM and a GI50 (MDA-MB-435) of 1.63 µM. The TGI (MDA-MB-435) was 3.08 µM.
For `COC1O[C@@H]2CCN3C(=O)[C@@H](OC(=O)c4ccc([N+](=O)[O-])cc4)[C@H]1C23` (some centres undefined), the TGI (MCF7 breast) was greater than 100 µM, the TGI (SF-268 CNS) was greater than 100 µM and the TGI (LOX IMVI melanoma) was greater than 100 µM. It also gave a TGI (M14 melanoma) greater than 100 µM, a TGI (SW-620 colon) greater than 100 µM and a TGI (T-47D breast) greater than 100 µM. The TGI (HS 578T breast) was greater than 100 µM, the TGI (CAKI-1 renal) was greater than 100 µM and the TGI (OVCAR-8 ovarian) was greater than 100 µM. It also gave a TGI (EKVX NSCLC) greater than 100 µM, a TGI (TK-10 renal) greater than 100 µM and a TGI (UACC-257 melanoma) greater than 100 µM. The TGI (SR leukemia) was greater than 100 µM, the TGI (SNB-75 CNS) was greater than 100 µM and the TGI (RXF 393 renal) was greater than 100 µM. For the same molecule, the TGI (K-562 leukemia) was greater than 100 µM, the TGI (NCI-H460 lung) was greater than 100 µM and the TGI (HOP-62 NSCLC) was greater than 100 µM. It also gave a TGI (IGROV1 ovarian) greater than 100 µM, a TGI (SN12C renal) greater than 100 µM and a TGI (UO-31 renal) greater than 100 µM. For the same molecule, the TGI (SF-539 CNS) was greater than 100 µM, the TGI (ACHN renal) was greater than 100 µM and the TGI (A498 renal) was greater than 100 µM. It also gave a TGI (COLO 205 colon) greater than 100 µM, a TGI (SF-295 CNS) greater than 100 µM and a TGI (KM12 colon) greater than 100 µM. It also gave a TGI (HCT-116 colon) greater than 100 µM, a TGI (NCI/ADR-RES ovarian) greater than 100 µM and a TGI (OVCAR-3 ovarian) greater than 100 µM. For the same molecule, the TGI (A549 NSCLC) was greater than 100 µM, the TGI (HCC-2998 colon) was greater than 100 µM and the TGI (SK-OV-3 ovarian) was greater than 100 µM. It also gave a TGI (MOLT-4 leukemia) greater than 100 µM, a TGI (OVCAR-5 ovarian) greater than 100 µM and a TGI (RPMI-8226 leukemia) greater than 100 µM. It also gave a TGI (NCI-H23 lung) greater than 100 µM, a TGI (MDA-MB-231 breast) greater than 100 µM and a TGI (DU-145 prostate) greater than 100 µM. The TGI (SK-MEL-5 melanoma) was greater than 100 µM, the TGI (HT29 colon) was greater than 100 µM and the TGI (CCRF-CEM leukemia) was greater than 100 µM. It also gave a TGI (HOP-92 NSCLC) greater than 100 µM, a TGI (U251 CNS) greater than 100 µM and a TGI (786-0 renal) greater than 100 µM. For the same molecule, the TGI (UACC-62 melanoma) was greater than 100 µM, the TGI (NCI-H226 lung) was greater than 100 µM and the TGI (MDA-MB-435) was greater than 100 µM. The TGI (NCI-H522 lung) was greater than 100 µM.
